Assay results from patent publication US4542137A, “Alkylaminodesoxy-1.4;3.6-dianhydrohexitol nitrates substituted by purine bases and pharmaceutical compositions” (priority 1980, dated 1985).

Test system: mongrel dogs
Assay: circulatory pharmacological effectiveness on narcotised dogs, intravenous
Type: in vivo, dog
Settings: dog i.v. ISDN/9c 1, 1d 0.5 mg/kg

With `CN(CCCn1cnc2c1c(=O)n(C)c(=O)n2C)[C@H]1CO[C@H]2[C@@H]1OC[C@@H]2O[N+](=O)[O-]` [Example 9c, 5-[N-Methyl-N-(3-theophyllin-7-ylpropyl)-amino]-5-desoxy-1.4;3.6-dianhydro-L-iditol 2-nitrate] the “APdiast: diastolic aorta pressure” value (2 min) was 58.1 mm.Hg, the “APsyst: systolic aorta pressure” value (2 min) was 105.0 mm.Hg and the “BFFem: blood flow in the A. femoralis referred to 20 kg body weight” value (from here on “BFFem: blood flow”) (2 min) was 34.6 mL/min. The “HF: heart frequency” value (2 min) was 163.2, the “HLL: heart capacity left, referred to 20 kg body weight” value (from here on “HLL: heart capacity left, referred”) (2 min) was 0.51 W and the “HLR: heart capacity right, referred to 20 kg body weight” value (shortened to “HLR: heart capacity right, referred”) (2 min) was 67.6 mW. For the same molecule, the “HZV: heart minute volume, referred to 20 kg body weight” value (“HZV: heart minute volume, referred” for short) (2 min) was 3.15 L/min, the “LVEDP: end diastolic pressure in the left ventricle” value (shortened to “LVEDP: end diastolic pressure”) (2 min) was 3.60 mm.Hg and the “SV: beat volume, referred to 20 kg body weight” value (“SV: beat volume, referred” below) (2 min) was 20.0 mL. The “WAP: pulmonalis resistance, referred to 20 kg body weight” value (“WAP: pulmonalis resistance, referred” for short) (2 min) was 0.30 U, the “WFem: moralis resistance, referred to 20 kg body weight” value (“WFem: moralis resistance, referred” for short) (2 min) was 0.33 KU and the “WTP: total peripheral resistance, referred to 20 kg body weight” value (shortened to “WTP: total peripheral resistance”) (2 min) was 3.07 U. For the same molecule, the “dp/dt: rate of pressure increase in the left ventricle” value (“dp/dt: rate of pressure increase” below) (2 min) was 3045.0 mm.Hg/sec, the “APdiast: diastolic aorta pressure” value (5 min) was 79.7 mm.Hg and the “APsyst: systolic aorta pressure” value (5 min) was 126.6 mm.Hg. The “BFFem: blood flow” value (5 min) was 39.1 mL/min, the “HF: heart frequency” value (5 min) was 129.7 and the “HLL: heart capacity left, referred” value (5 min) was 0.56 W. The “HLR: heart capacity right, referred” value (5 min) was 66.9 mW, the “HZV: heart minute volume, referred” value (5 min) was 2.73 L/min and the “LVEDP: end diastolic pressure” value (5 min) was 4.64 mm.Hg. The “SV: beat volume, referred” value (5 min) was 21.1 mL, the “WAP: pulmonalis resistance, referred” value (5 min) was 0.33 U and the “WFem: moralis resistance, referred” value (5 min) was 0.37 KU. The “dp/dt: rate of pressure increase” value (5 min) was 2287.5 mm.Hg/sec, the “APdiast: diastolic aorta pressure” value (7 min) was 82.5 mm.Hg and the “APsyst: systolic aorta pressure” value (7 min) was 129.4 mm.Hg. The “BFFem: blood flow” value (7 min) was 42.5 mL/min, the “HF: heart frequency” value (7 min) was 123.2 and the “HLL: heart capacity left, referred” value (7 min) was 0.58 W. The “HLR: heart capacity right, referred” value (7 min) was 64.2 mW, the “HZV: heart minute volume, referred” value (7 min) was 2.75 L/min and the “LVEDP: end diastolic pressure” value (7 min) was 4.92 mm.Hg. The “SV: beat volume, referred” value (7 min) was 22.4 mL, the “WFem: moralis resistance, referred” value (7 min) was 0.34 KU and the “WTP: total peripheral resistance” value (7 min) was 4.77 U. The “dp/dt: rate of pressure increase” value (7 min) was 2325.0 mm.Hg/sec, the “APdiast: diastolic aorta pressure” value (10 min) was 81.6 mm.Hg and the “APsyst: systolic aorta pressure” value (10 min) was 127.5 mm.Hg. The “HF: heart frequency” value (10 min) was 120.5, the “HLL: heart capacity left, referred” value (10 min) was 0.57 W and the “HLR: heart capacity right, referred” value (10 min) was 68.8 mW. For the same molecule, the “HZV: heart minute volume, referred” value (10 min) was 2.76 L/min, the “LVEDP: end diastolic pressure” value (10 min) was 4.92 mm.Hg and the “SV: beat volume, referred” value (10 min) was 23.0 mL. The “WAP: pulmonalis resistance, referred” value (10 min) was 0.32 U, the “WFem: moralis resistance, referred” value (10 min) was 0.32 KU and the “WTP: total peripheral resistance” value (10 min) was 4.68 U. For the same molecule, the “APdiast: diastolic aorta pressure” value (15 min) was 81.6 mm.Hg, the “APsyst: systolic aorta pressure” value (15 min) was 128.4 mm.Hg and the “BFFem: blood flow” value (15 min) was 43.4 mL/min. For the same molecule, the “HF: heart frequency” value (15 min) was 115.2, the “HLL: heart capacity left, referred” value (15 min) was 0.57 W and the “HLR: heart capacity right, referred” value (15 min) was 63.6 mW. The “HZV: heart minute volume, referred” value (15 min) was 2.77 L/min, the “LVEDP: end diastolic pressure” value (15 min) was 5.20 mm.Hg and the “SV: beat volume, referred” value (15 min) was 24.2 mL. The “WAP: pulmonalis resistance, referred” value (15 min) was 0.30 U, the “WFem: moralis resistance, referred” value (15 min) was 0.31 KU and the “WTP: total peripheral resistance” value (15 min) was 4.65 U. The “dp/dt: rate of pressure increase” value (15 min) was 2250.0 mm.Hg/sec, the “APdiast: diastolic aorta pressure” value (20 min) was 82.5 mm.Hg and the “APsyst: systolic aorta pressure” value (20 min) was 128.4 mm.Hg. The “BFFem: blood flow” value (20 min) was 44.2 mL/min, the “HF: heart frequency” value (20 min) was 114.5 and the “HLL: heart capacity left, referred” value (20 min) was 0.55 W. For the same molecule, the “HLR: heart capacity right, referred” value (20 min) was 63.1 mW, the “HZV: heart minute volume, referred” value (20 min) was 2.65 L/min and the “LVEDP: end diastolic pressure” value (20 min) was 5.48 mm.Hg. For the same molecule, the “SV: beat volume, referred” value (20 min) was 23.3 mL, the “WAP: pulmonalis resistance, referred” value (20 min) was 0.30 U and the “WFem: moralis resistance, referred” value (20 min) was 0.31 KU. The “WTP: total peripheral resistance” value (20 min) was 4.90 U, the “dp/dt: rate of pressure increase” value (20 min) was 2221.9 mm.Hg/sec and the “APdiast: diastolic aorta pressure” value (25 min) was 83.4 mm.Hg. For the same molecule, the “APsyst: systolic aorta pressure” value (25 min) was 131.2 mm.Hg, the “BFFem: blood flow” value (25 min) was 41.3 mL/min and the “HLL: heart capacity left, referred” value (25 min) was 0.56 W. The “HLR: heart capacity right, referred” value (25 min) was 60.5 mW, the “HZV: heart minute volume, referred” value (25 min) was 2.65 L/min and the “LVEDP: end diastolic pressure” value (25 min) was 5.62 mm.Hg. The “SV: beat volume, referred” value (25 min) was 23.7 mL, the “WAP: pulmonalis resistance, referred” value (25 min) was 0.27 U and the “WFem: moralis resistance, referred” value (25 min) was 0.33 KU. For the same molecule, the “WTP: total peripheral resistance” value (25 min) was 5.00 U, the “dp/dt: rate of pressure increase” value (25 min) was 2221.9 mm.Hg/sec and the “APdiast: diastolic aorta pressure” value (30 min) was 81.6 mm.Hg. For the same molecule, the “APsyst: systolic aorta pressure” value (30 min) was 134.1 mm.Hg, the “BFFem: blood flow” value (30 min) was 44.2 mL/min and the “HF: heart frequency” value (30 min) was 111.5. For the same molecule, the “HLL: heart capacity left, referred” value (30 min) was 0.57 W, the “HLR: heart capacity right, referred” value (30 min) was 60.5 mW and the “HZV: heart minute volume, referred” value (30 min) was 2.68 L/min. The “LVEDP: end diastolic pressure” value (30 min) was 5.62 mm.Hg, the “SV: beat volume, referred” value (30 min) was 24.2 mL and the “WFem: moralis resistance, referred” value (30 min) was 0.31 KU. The “WTP: total peripheral resistance” value (30 min) was 4.87 U, the “dp/dt: rate of pressure increase” value (30 min) was 2221.9 mm.Hg/sec and the “APdiast: diastolic aorta pressure” value (40 min) was 86.2 mm.Hg. The “APsyst: systolic aorta pressure” value (40 min) was 136.9 mm.Hg.
